Assay results taken from ChEMBL document CHEMBL5131539, “Insights on JAK2 Modulation by Potent, Selective, and Cell-Permeable Pseudokinase-Domain Ligands” (J Med Chem, 2022).
The source made the active and inactive calls. No cut-off for these calls is given here.

Columns and labels:
[1] = pampa, pH 7.4, 18 h
Description: Permeability of the compound in PBS buffer at pH 7.4 measured after 18 hrs by UV plate reader based PAMPA assay

[2] = biological target: T1, Tyrosine-protein kinase JAK2 (Homo sapiens, UniProt O60674); assay: biochemical
Description: Binding affinity to JAK2 JH2 (unknown origin) expressed in baculovirus infected Sf9 cells assessed as dissociation constant measured upto 30 mins in presence of tracer by competitive fluorescence polarization assay

[3] = tested on: Tyrosine-protein kinase JAK2 (Homo sapiens), O60674 [V617F]; assay: Inhibition of JAK2 JH2 V617F mutant in human HEL cells assessed as reduction in STAT5 phosphorylation at 20 uM measured after 3 hrs by Western blotting analysis; format: cell-based
[4] = tested on: Tyrosine-protein kinase JAK2 (Homo sapiens), O60674 [V617F]; assay: Inhibition of JAK2 JH2 V617F mutant in human HEL cells assessed as reduction in STAT5 phosphorylation at 10 to 20 uM incubated for 1 hrs by Western blotting analysis; format: cell-based; details: dose 10-20 µM
[5] = biological target: T1, Tyrosine-protein kinase JAK2; assay: Inhibition of wild type JAK2 JH2 in human TF-1 cells assessed as reduction in STAT5 phosphorylation at 10 to 20 uM incubated for 1 hrs by Western blotting analysis; format: cell-based; details: dose 10-20 µM
[6] = biological target: T1, Tyrosine-protein kinase JAK2; assay: biochemical; remark: listed apart in the source
Description: Binding affinity to wild type JAK2 JH1 (unknown origin) expressed in baculovirus infected Sf9 cells assessed as dissociation constant measured upto 30 mins in presence of tracer by competitive fluorescence polarization assay

[7] = biological target: Tyrosine-protein kinase JAK2 (Homo sapiens, UniProt O60674, V617F); assay: biochemical
Description: Binding affinity to JAK2 JH2 V617F mutant (unknown origin) expressed in baculovirus infected Sf9 cells assessed as dissociation constant measured upto 30 mins in presence of tracer by competitive fluorescence polarization assay

[8] = biological target: T1, Tyrosine-protein kinase JAK2; assay: Inhibition of JAK2 JH2 (unknown origin) expressed in baculovirus infected Sf9 cells at 50 uM incubated upto 30 mins in the presence of tracer by competitive fluorescence polarization analysis relative to control

Sequence of Tyrosine-protein kinase JAK2 (Homo sapiens, UniProt O60674, V617F) (O60674 whole entry V617F): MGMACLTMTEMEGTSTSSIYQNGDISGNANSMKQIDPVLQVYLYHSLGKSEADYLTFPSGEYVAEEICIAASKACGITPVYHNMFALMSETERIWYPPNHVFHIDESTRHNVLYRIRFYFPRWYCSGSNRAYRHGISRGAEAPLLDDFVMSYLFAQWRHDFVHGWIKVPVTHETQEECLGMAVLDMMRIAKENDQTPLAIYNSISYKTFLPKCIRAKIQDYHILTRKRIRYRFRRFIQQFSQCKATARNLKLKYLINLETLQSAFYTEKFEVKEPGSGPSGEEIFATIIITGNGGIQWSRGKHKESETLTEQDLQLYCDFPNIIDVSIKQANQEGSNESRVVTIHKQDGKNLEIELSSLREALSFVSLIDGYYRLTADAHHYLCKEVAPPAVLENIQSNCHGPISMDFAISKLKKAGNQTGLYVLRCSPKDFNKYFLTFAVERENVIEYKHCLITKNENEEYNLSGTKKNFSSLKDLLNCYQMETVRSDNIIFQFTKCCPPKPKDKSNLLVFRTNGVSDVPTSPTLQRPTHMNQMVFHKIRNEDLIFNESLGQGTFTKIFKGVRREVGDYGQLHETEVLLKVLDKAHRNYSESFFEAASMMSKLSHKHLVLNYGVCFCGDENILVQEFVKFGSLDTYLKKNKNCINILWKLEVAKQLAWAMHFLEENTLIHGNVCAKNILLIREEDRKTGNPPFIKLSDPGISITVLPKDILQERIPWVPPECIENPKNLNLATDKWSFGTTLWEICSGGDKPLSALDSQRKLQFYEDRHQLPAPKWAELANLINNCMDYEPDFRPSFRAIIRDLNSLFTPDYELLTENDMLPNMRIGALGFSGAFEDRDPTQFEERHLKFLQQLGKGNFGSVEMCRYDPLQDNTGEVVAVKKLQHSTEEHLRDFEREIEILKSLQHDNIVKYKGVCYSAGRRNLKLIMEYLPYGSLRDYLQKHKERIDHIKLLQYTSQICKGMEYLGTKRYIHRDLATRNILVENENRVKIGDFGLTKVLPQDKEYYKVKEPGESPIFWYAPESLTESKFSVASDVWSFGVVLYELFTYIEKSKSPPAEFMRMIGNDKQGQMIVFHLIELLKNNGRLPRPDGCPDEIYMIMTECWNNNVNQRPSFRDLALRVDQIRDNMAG
T1 sequence (O60674 whole entry): as the sequence (O60674 whole entry V617F) above, with F617V counted along it
Sequence of Tyrosine-protein kinase JAK2 (Homo sapiens), O60674 [V617F] (O60674 whole entry V617F): as the sequence (O60674 whole entry V617F) above

**Q.** Which results are given for `Nc1nc(Nc2ccc(S(N)(=O)=O)cc2)nn1C(=O)Nc1ccc(-c2cccc(C(=O)O)c2)cc1`?
**A.** permeability [1]: 0.015 10^-6 cm/s; Kd [2]: 0.129 µM

**Q.** What does the source list for `CNC(=O)c1ccc(Nc2nc(N)n(C(=O)Nc3ccc(-c4ccc(OCc5ccccc5)c(C(=O)O)c4)cc3)n2)cc1`?
**A.** inhibition [3]: Active; inhibition [4]: Active; inhibition [5]: Active; permeability [1]: 0.24 10^-6 cm/s; Kd [6]: 6.81 µM; Kd [7]: 0.043 µM

**Q.** For `Nc1nc(Nc2ccc(S(N)(=O)=O)cc2)nn1C(=O)Nc1ccc(-c2cncc(C(=O)O)c2)cc1`, which Kd [2] is on record?
**A.** 0.652 µM

**Q.** Which results are given for `CNC(=O)c1ccc(Nc2nc(N)n(C(=O)Nc3ccc(-c4cc(OCc5ccccc5)cc(C(=O)O)c4)cc3)n2)cc1`?
**A.** permeability [1]: 0.971 10^-6 cm/s; Kd [2]: 0.044 µM; Kd [6]: 5.91 µM; Kd [7]: 0.05 µM

**Q.** Which Kd [2] does the source give for `Nc1nc(Nc2ccc(S(N)(=O)=O)cc2)nn1C(=O)Nc1ccc(-c2cccc(C(=O)O)n2)cc1` here?
**A.** 0.934 µM

**Q.** With `Nc1nc(Nc2ccc(S(N)(=O)=O)cc2)nn1C(=O)Nc1ccc(-c2cc(OCc3ccccc3)cc(C(=O)O)c2)cc1` as the compound, how does the permeability [1] read?
**A.** 1.15 10^-6 cm/s

**Q.** What about the Kd [2] of the same compound?
**A.** 0.075 µM

**Q.** And the Kd [6]?
**A.** 3.36 µM

**Q.** And the Kd [7]?
**A.** 0.062 µM

**Q.** For `Nc1nc(Nc2ccc(S(N)(=O)=O)cc2)nn1C(=O)Nc1ccc(-c2cncc(C(=O)O)n2)cc1`, which Kd [2] is on record?
**A.** 1.4 µM

**Q.** For `COC(=O)c1cccc(-c2ccc(NC(=O)n3nc(Nc4ccc(S(N)(=O)=O)cc4)nc3N)cc2)c1`, which inhibition [8] is on record?
**A.** 27%

**Q.** What about the permeability [1] of the same compound?
**A.** 0.09 10^-6 cm/s

**Q.** Which Kd [2] does the source give for `Nc1nc(Nc2ccc(S(N)(=O)=O)cc2)nn1C(=O)Nc1ccc(-c2ccc(C(=O)O)cc2)cc1` here?
**A.** 0.155 µM

**Q.** For `Nc1nc(Nc2ccc(S(N)(=O)=O)cc2)nn1C(=O)Nc1ccc(-c2ccccc2)cc1`, which inhibition [8] is on record?
**A.** 30.5%

**Q.** What does the source list for `Nc1nc(Nc2ccc(S(N)(=O)=O)cc2)nn1C(=O)Nc1ccc(-c2ccnc(C(=O)O)c2)cc1`?
**A.** Kd [2]: 0.394 µM; Kd [6]: 8.1 µM; Kd [7]: 0.131 µM
